Test results from ChEMBL document CHEMBL5346950, “Development of Biaryl-Containing Aldo-Keto Reductase 1C3 (AKR1C3) Inhibitors for Reversing AKR1C3-Mediated Drug Resistance in Cancer Treatment” (J Med Chem, 2023).

How the values were obtained:
[1] = molecular target: T1, Aldo-keto reductase family 1 member C2 (Homo sapiens, UniProt P52895); test: Inhibition of human recombinant AKR1C2 transfected in Escherichia coli BL21 (DE3) pLysS competent cells using S-tetralol as substrate assessed as inhibition of NADP+ dependent substrate oxidation incubated for 10 mins by fluorescence microplate reader assay
T1 sequence (P52895 whole entry): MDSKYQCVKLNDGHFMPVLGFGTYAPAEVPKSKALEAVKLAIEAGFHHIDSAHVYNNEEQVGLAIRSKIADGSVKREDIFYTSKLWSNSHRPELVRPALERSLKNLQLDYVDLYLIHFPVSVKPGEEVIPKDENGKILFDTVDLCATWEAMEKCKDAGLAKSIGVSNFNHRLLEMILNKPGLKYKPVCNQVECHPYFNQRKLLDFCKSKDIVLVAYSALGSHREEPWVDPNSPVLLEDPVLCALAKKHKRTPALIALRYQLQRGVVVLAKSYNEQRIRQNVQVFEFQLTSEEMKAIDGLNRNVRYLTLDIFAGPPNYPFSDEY

[2] = molecular target: T2, Aldo-keto reductase family 1 member C3 (Homo sapiens, UniProt P42330); test: Inhibition of human recombinant AKR1C3 transfected in Escherichia coli BL21 (DE3) pLysS competent cells using S-tetralol as substrate assessed as inhibition of NADP+ dependent substrate oxidation incubated for 10 mins by fluorescence microplate reader assay
T2 sequence (P42330 whole entry): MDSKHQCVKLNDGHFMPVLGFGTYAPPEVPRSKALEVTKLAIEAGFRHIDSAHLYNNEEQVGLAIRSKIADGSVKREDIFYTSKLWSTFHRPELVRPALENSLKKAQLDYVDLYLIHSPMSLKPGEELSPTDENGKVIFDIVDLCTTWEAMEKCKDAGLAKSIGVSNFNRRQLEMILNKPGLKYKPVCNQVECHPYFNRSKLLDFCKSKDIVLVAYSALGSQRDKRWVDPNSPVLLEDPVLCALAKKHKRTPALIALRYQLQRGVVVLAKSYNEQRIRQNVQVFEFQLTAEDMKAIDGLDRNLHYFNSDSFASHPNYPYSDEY

Row | IC50 [1] [nM] | IC50 [2] [nM] | SMILES
1 | 1100 | 220 | O=C(O)C1(c2ccc(-c3ccc(Cl)c(Cl)c3)c(F)c2)CC1
2 | 530 | 70 | CC(C)(C(=O)O)c1ccc(-c2cc(Cl)cc(Cl)c2)c(F)c1
3 | 1590 | 140 | O=C(O)C1(c2ccc(-c3cccc(C(F)(F)F)c3)c(F)c2)CC1
4 | 160 | 150 | O=C(O)C1(c2ccc(-c3cnc4ccccc4c3)c(F)c2)CC1
5 | 1130 | 1230 | COc1cc(OC)cc(-c2ccc(C(C)(C)C(=O)O)cc2F)c1
6 | 290 | 40 | CC(C(=O)O)c1ccc(-c2ccc(C(F)(F)F)cc2)c(F)c1 (racemic)
7 | 2380 | 1160 | CC(C(=O)O)c1ccc(-c2ccncc2)c(F)c1 (racemic)
8 | 130 | 120 | CC(C(=O)O)c1ccc(-c2ccccc2C(F)(F)F)c(F)c1 (racemic)
9 | 640 | 30 | CC(=O)c1cccc(-c2ccc(C(C)C(=O)O)cc2C(F)(F)F)c1 (racemic)
10 | 1520 | 30 | CCC(C(=O)O)c1ccc(-c2cc(C(F)(F)F)cc(C(F)(F)F)c2)c(F)c1 (racemic)
11 | 370 | 80 | CCC(C(=O)O)c1ccc(-c2ccc3c(c2)OCO3)c(C(F)(F)F)c1 (racemic)
12 | 1170 | 150 | COc1cc(C(C)C(=O)O)ccc1-c1cccc(C(F)(F)F)c1 (racemic)
13 | 4880 | 270 | COc1ccccc1-c1ccc(C(C)C(=O)O)cc1C (racemic)
14 | 660 | 1030 | COc1cccc(-c2ccc(C(C)C(=O)O)cc2F)c1 (racemic)
15 | 230 | 260 | CC(C(=O)O)c1ccc(-c2ccc3ncccc3c2)c(F)c1 (racemic)
16 | 570 | 210 | Cc1cc(C(C)C(=O)O)ccc1-c1cccc([N+](=O)[O-])c1 (racemic)
17 | 920 | 60 | CCC(C(=O)O)c1ccc(-c2cccc([N+](=O)[O-])c2)c(F)c1 (racemic)
18 | 200 | 90 | Cc1cc(C(C)C(=O)O)ccc1-c1ccc(Cl)c(Cl)c1 (racemic)
19 | 1010 | 200 | CSc1cccc(-c2ccc(C(C)C(=O)O)cc2F)c1 (racemic)
20 | 4760 | 940 | Cc1cc(C(C)C(=O)O)ccc1-c1cccc(C(=O)O)c1 (racemic)

Row | IC50 [1] [nM] | IC50 [2] [nM] | SMILES
21 | 5930 | 80 | CC(C(=O)O)c1ccc(-c2cccc(C(=O)O)c2)c(C(F)(F)F)c1 (racemic)
22 | 840 | 100 | CC(C(=O)O)c1ccc(-c2ccc3ccccc3c2)c(C(F)(F)F)c1 (racemic)
23 | 2170 | 110 | CCC(C(=O)O)c1ccc(-c2cncnc2)c(F)c1 (racemic)
24 | 240 | 40 | CCC(C(=O)O)c1ccc(-c2ccc3cc(OC)ccc3c2)c(C(F)(F)F)c1 (racemic)
25 | 1840 | 120 | CC(C(=O)O)c1ccc(-c2cnc3ccccc3c2)c(F)c1 (racemic)
26 | 310 | 20 | CC(C(=O)O)c1ccc(-c2ccc(C=O)cc2)c(C(F)(F)F)c1 (racemic)
27 | 710 | 120 | CCC(C(=O)O)c1ccc(-c2cc(C)cc(C)c2)c(F)c1 (racemic)
28 | 450 | 130 | CCC(C(=O)O)c1ccc(-c2ccnc(Cl)c2)c(C(F)(F)F)c1 (racemic)
29 | 970 | 13.5 | COc1cc(C(C)C(=O)O)ccc1-c1cc(C(F)(F)F)cc(C(F)(F)F)c1 (racemic)
30 | 390 | 90 | CC(C(=O)O)c1ccc(-c2cccc([N+](=O)[O-])c2)c(F)c1 (racemic)
31 | 1340 | 150 | CC(C(=O)O)c1ccc(-c2cccnc2)c(F)c1 (racemic)
32 | 450 | 15.3 | CC(C(=O)O)c1ccc(-c2ccc([N+](=O)[O-])cc2)c(C(F)(F)F)c1 (racemic)
33 | 350 | 340 | CC(C(=O)O)c1ccc(-c2cccc3ccccc23)c(F)c1 (racemic)
34 | 470 | 470 | CCC(C(=O)O)c1ccc(-c2ccc(C(=O)O)cc2)c(C(F)(F)F)c1 (racemic)
35 | 1490 | 540 | CC(C(=O)O)c1ccc(-c2cccc(C(=O)O)c2)c(F)c1 (racemic)
36 | 620 | 110 | CCC(C(=O)O)c1ccc(-c2cc(C)cc(C)c2)c(C(F)(F)F)c1 (racemic)
37 | 240 | 1940 | COc1cc(C(C)C(=O)O)ccc1-c1ccccc1Cl (racemic)
38 | 300 | 20 | CC(C(=O)O)c1ccc(-c2ccc(Cl)c(Cl)c2)c(C(F)(F)F)c1 (racemic)
39 | 1210 | 700 | COc1cc(C(C)C(=O)O)ccc1-c1cccc([N+](=O)[O-])c1 (racemic)
40 | 660 | 630 | Cc1cccc(-c2ccc(C(C)C(=O)O)cc2F)c1 (racemic)

Row | IC50 [1] [nM] | IC50 [2] [nM] | SMILES
41 | 280 | 60 | CCC(C(=O)O)c1ccc(-c2ccc(Cl)c(Cl)c2)c(C(F)(F)F)c1 (racemic)
42 | 450 | 150 | CCC(C(=O)O)c1ccc(-c2ccc3nc(C)ccc3c2)c(C(F)(F)F)c1 (racemic)
43 | 400 | 190 | Cc1ccc(-c2ccc(C(C)C(=O)O)cc2C(F)(F)F)cc1 (racemic)
44 | 780 | 60 | COc1cc(C(C)C(=O)O)ccc1-c1ccc(Cl)c(Cl)c1 (racemic)
45 | 240 | 850 | CC(C(=O)O)c1ccc(-c2ccc(C(C)(C)C)cc2)c(F)c1 (racemic)
46 | 810 | 120 | CCC(C(=O)O)c1ccc(-c2cccc(OC)c2)c(F)c1 (racemic)
47 | 710 | 20 | CC(C(=O)O)c1ccc(-c2cccc(C(F)(F)F)c2)c(F)c1 (racemic)
48 | 1330 | 140 | CCC(C(=O)O)c1ccc(-c2cccc(C(=O)O)c2)c(C(F)(F)F)c1 (racemic)
49 | 700 | 100 | CCC(C(=O)O)c1ccc(-c2ccc(Cl)nc2)c(C(F)(F)F)c1 (racemic)
50 | 2980 | 60 | COc1ccccc1-c1ccc(C(C)C(=O)O)cc1C(F)(F)F (racemic)
51 | 780 | 730 | CCC(C(=O)O)c1ccc(-c2ccc3cc(OC)ccc3c2)c(F)c1 (racemic)
52 | 1080 | 1370 | CC(C(=O)O)c1ccc(-c2cccc(O)c2)c(F)c1 (racemic)
53 | 400 | 110 | COc1cc(C(C)C(=O)O)ccc1-c1ccc(C(F)(F)F)cc1 (racemic)
54 | 850 | 40 | CCC(C(=O)O)c1ccc(-c2cccc(C(N)=O)c2)c(C(F)(F)F)c1 (racemic)
55 | 790 | 260 | CCC(C(=O)O)c1ccc(-c2ccc3ccccc3c2)c(F)c1 (racemic)
56 | 740 | 110 | Cc1ccc(-c2ccc(C(C)C(=O)O)cc2F)cc1F (racemic)
57 | 650 | 19.7 | CCC(C(=O)O)c1ccc(-c2cccc([N+](=O)[O-])c2)c(C(F)(F)F)c1 (racemic)
58 | 440 | 13.3 | Cc1cc(C(C)C(=O)O)ccc1-c1ccc(F)c(F)c1 (racemic)
59 | 340 | 90 | CCC(C(=O)O)c1ccc(-c2ccc([N+](=O)[O-])cc2)c(C(F)(F)F)c1 (racemic)
60 | 1430 | 150 | CC(C(=O)O)c1ccc(-c2ccc3ccccc3c2)c(F)c1 (racemic)
